Consider three compounds from article PMC12469672, “Effects on Oral Squamous Carcinoma Cell Lines and Their Mechanisms of Pyrazole N-Aryl Sulfonate: A Novel Class of Selective Cyclooxygenase-2 Inhibitors” (International Journal of Molecular Sciences, 2025).

SMILES strings stand for the structures. “Also recorded” adds a separate entry of the source. A value given as a limit tells only on which side of the number the result lay.

For data set [1], the system named is BCL2 protein in CAL-27 cells. In words: Western blot BCL2, CAL-27. The following applies: CAL-27, vs CXB. In kind it is cell-based. As for the experimental part:
Cell lysates were centrifuged at 12,000× g for 10 min at 4 °C and then quantified using the BCA Protein Assay Kit (CW0014S, Cwbio, Taizhou, China). The lysate was denatured with sodium dodecyl sulfate–polyacrylamide gel electrophoresis (SDS-PAGE) sample loading buffer (P1040, Solarbio, Beijing, China), followed by SDS-PAGE and electrotransfer to polyvinylidene difluoride membranes (10600023, Cytiva, Marlborough, MA, USA). The membranes were incubated overnight at 4 °C with GAPDH (1:5000, 1049-1-AP, Proteintech Group, Wuhan, China), anti-PTGS2 (1:2000, 12375-1-AP, Proteintech Group, China), anti-BAX (1:1000, ab777, Abcam, Cambridge, UK), anti-BCL2 (1:5000, ET1702-53, HUABIO, Hangzhou, China), anti-BCL-XL (1:8000, 10783-1-AP, Proteintech Group, China), anti-MMP2 (1:3000, 66366-1-Ig, Proteintech Group, China), anti-MMP9 (1:3000, 10372-2-AP, Proteintech Group, China), anti-JAK1 (1:3000, 66466-1-Ig, Proteintech Group, China), anti-phospho-JAK1 (1:400, GB115604-100, Servicebio, China), anti-STAT3 (1:2000, 10253-2-AP, Proteintech Group, China), and anti-phospho-STAT3 (1:1000, 39595, Activemotif, Shanghai, China) at the appropriate dilution and then incubated with the secondary antibody at room temperature for 1.5 h. The bands were visualized by employing an ECL detection reagent (36208ES76, Yeasen, Shanghai, China) and independently quantified twice using ImageJ (v1.8.0.322) and ChemiScope Analysis (Version 2.1.6.0) software. Subsequently, the obtained data were normalized to GAPDH.
On the technique in general: Immunoblotting shows a protein as a band on a membrane.

The subject of data set [2] is SAS cells. In words: Hoechst 33342 staining, SAS. In kind it is cell-based. Conditions: 24 h, working concentrations, vs NC. On the procedure: After 24 h drug treatment at the predefined working concentrations, CAL-27 and SAS cells were dyed with 300 μL Hoechst 33342 staining (C1022, Beyotime, China) in the dark at 37 °C for 10 min. Then, the residual Hoechst 33342 staining was washed 3 times with 1 × phosphate-buffered saline (PBS, G4250-500ML, Servicebio, China). The images were then immediately examined under an inverted fluorescence microscope (CX23, Olympus, Japan).

Data set [3] has as its system COX-2 mRNA in SAS cells. In words: RT-qPCR COX-2 mRNA, SAS. In kind it is cell-based. Conditions: working concentrations, 24 h, vs control. As for the experimental part:
(§1) Equal amounts of RNA were reverse transcribed into cDNA using the Reverse Transcription Kit (AG11705, Accurate Biology, Guangzhou, China) following the manufacturer’s instructions. Quantitative PCR was performed on a QIAGEN Rotor-GeneQ system (9001862, QIAGEN, Hilden, Germany) with SYBR Green Pro Taq HS Premix II (AG11702, Accurate Biology, China).
(§2) The PCR protocol consisted of initial denaturation at 95 °C for 30 s, followed by 40 cycles of 95 °C for 5 s and 60 °C for 30 s. All reactions were performed in triplicate, with melting curve analysis confirming amplification specificity. The expression of the target genes was normalized to GAPDH, and fold changes were calculated in the manner of the 2^−ΔΔCT .
On the technique in general: Real-time PCR tracks product formation cycle by cycle.

For data set [4], the system named is COX-2 mRNA in CAL-27 cells. In words: RT-qPCR COX-2 mRNA, CAL-27. In kind it is cell-based. Conditions: CAL-27, working concentrations, 24 h. On the procedure:
as §1, §2

For data set [5], the system named is HepG2. Conditions: previous experiments, preliminary screening; cited from earlier work.
Data set [6] deals with MMP9 mRNA in CAL-27 cells. In words: RT-qPCR MMP9 mRNA, CAL-27. In kind it is cell-based. The following applies: CAL-27, 24 h, vs control. As for the experimental part:
as §1, §2

Data set [7] has as its system CYP19A1 mRNA in SAS cells. In words: RT-qPCR CYP19A1 mRNA, SAS. In kind it is cell-based. The following applies: vs control group and CXB-treated group. As for the experimental part:
as §1, §2

The subject of data set [8] is SAS cells. In words: Annexin V-FITC/PI flow cytometry apoptosis, SAS. In kind it is cell-based. Conditions: 24 h, vs control. As for the experimental part: After 24 h drug treatment at the predefined working concentrations, CAL-27 and SAS cells were trypsinized, centrifuged (200× g, 5 min, RT), and washed twice with 1 mL ice-cold PBS. Cell aliquots ((5–10) × 10^4 cells) were resuspended in 195 μL Annexin V-FITC binding buffer, followed by sequential addition of 5 μL Annexin V-FITC and 10 μL propidium iodide (PI) (BMS500FI-100, Thermo Fisher Scientific, Wien, Austria) with gentle mixing. After 10–20 min of incubation in darkness (20–25 °C) with intermittent resuspension (2–3 times), samples were placed on ice and analyzed within 1 h using a flow cytometer (CytExpert software [Version 2.4.0.28, Beckman Coulter, Brea, CA, USA]). Triplicate independent experiments were performed for statistical analysis.
On the technique in general: Flow cytometry measures light scatter and fluorescence of single cells or particles in a stream.

Data set [9] concerns CYP19A1 mRNA in CAL-27 cells. In words: RT-qPCR CYP19A1 mRNA, CAL-27. Conditions: CAL-27, vs control. In kind it is cell-based. On the procedure:
as §1, §2

In data set [10] the test system is MMP2 mRNA in SAS cells. In words: RT-qPCR MMP2 mRNA, SAS. In kind it is cell-based. Conditions: vs control. As for the experimental part: as §1, §2
Data set [11] has as its system VERO cells. In words: CCK-8 cytotoxicity assay, VERO. In kind it is cell-based, African green monkey. The following applies: for IC50: Chlorocebus sabaeus, VERO, CCK-8, 24 h; for proliferation rate of VERO cells / cytotoxicity in VERO cells: working concentrations; for proliferation rate of VERO cells: 24 h, vs control; for cytotoxicity in VERO cells: vs CXB. On the procedure: The OSCC cell lines CAL-27 (STCC12901P, Servicebio, Wuhan, China) and SAS (CC0706, Cellcook, Guangzhou, China) were cultured in Dulbecco Modified Eagle Medium F12 (DMEM/F12) (G4610-500ML, Servicebio, Wuhan, China) supplemented with 10% fetal bovine serum (FBS) (AB-FBS-DIA1050, ABW, Shanghai, China) and 100 U/mL penicillin-streptomycin-gentamicin solution (G4014-100ML, Servicebio, Wuhan, China). VERO cells were cultured in DMEM (G4524-500ML, Servicebio, Wuhan, China) supplemented with 10% FBS (AB-FBS-DIA1050, ABW, China) and 100 U/mL penicillin–streptomycin–gentamicin solution (G4014-100ML, Servicebio, Wuhan, China). […] were maintained at 37 °C in a humidified 5% CO2 incubator. For experiments, 1 × 10^6 cells were seeded per T-25 culture flask.
CAL-27, SAS, and VERO cells were seeded in 96-well plates at a density of 5000 cells per well. At specified time intervals, 10 μL of Cell Counting Kit-8 (CCK-8) reagent (K1018, Apexbio, Boston, MA, USA) was added to each well and incubated for 2 h. Absorbance at 450 nm was measured using a microplate reader (Infinite M200 Pro, Tecan Group, Männedorf, Switzerland).

For `Cc1ccc(-c2cc(C)n(S(=O)(=O)Oc3ccc(I)cc3)n2)cc1` [Compound 4b], the “BCL2 protein suppression (Western blot)” value in data set [1] is “stronger suppression of BCL2 than CXB”. Besides, the “apoptotic cells (Hoechst 33342, fluorescence microscopy)” value (shortened to “apoptotic cells”) in data set [2] is “significant increase”. Also, the “COX-2 mRNA level” value in data set [3] is “significantly downregulated”. Moreover, the “COX-2 mRNA level” value in data set [4] (vs CXB-treated group) is reported as “significantly lower”. Also, the “COX-2 mRNA level” value in data set [4] (vs control) is given as “significantly downregulated”. Besides, in [5], the “antiproliferative effect on HepG2” value is “concentration-dependent antiproliferative effects”, the “apoptosis of HepG2” value was “induction of apoptosis” and the “migration of HepG2” value is on record as “suppression of migration”. Besides, in data set [6], the “MMP9 mRNA expression” value is “significantly downregulated”. Further, in [7], the “CYP19A1 mRNA expression” value is “significantly reduced”. Also, the “total apoptotic cell population (early and late apoptosis)” value (shortened to “total apoptotic cell population”) in [8] is “significantly higher”. For the same compound, the “CYP19A1 mRNA expression” value in data set [9] is given as “significantly downregulated”. Besides, the “MMP2 mRNA expression” value in [10] was “markedly suppressed”. Further, in data set [11], the IC50 turned out to be 102 µM, the “proliferation rate of VERO cells” value is “remained largely unchanged” and the “cytotoxicity in VERO cells” value is listed as “lower cytotoxicity than CXB”.
Turning to `Cc1ccc(-c2cc(C)n(S(=O)(=O)Oc3ccccc3Cl)n2)cc1` [Compound 4d], the “BCL2 protein suppression (Western blot)” value in data set [1] is recorded as “stronger suppression of BCL2 than CXB”. Further, in [2], the “apoptotic cells” value was “significant increase”. The “COX-2 mRNA level” value in data set [3] was “marked upregulation”. In addition, the “COX-2 mRNA level” value in data set [4] (vs CXB-treated group) is “significantly lower”. For the same compound, the “COX-2 mRNA level” value in data set [4] (vs control) is “significantly downregulated”. For the same compound, in data set [5], the “antiproliferative effect on HepG2” value is reported as “concentration-dependent antiproliferative effects”, the “apoptosis of HepG2” value is reported as “induction of apoptosis” and the “migration of HepG2” value is “suppression of migration”. The “MMP9 mRNA expression” value in [6] is “significantly downregulated”. Besides, in data set [7], the “CYP19A1 mRNA expression” value is on record as “significantly reduced”. Also, the “total apoptotic cell population” value in data set [8] is given as “significantly higher”. In addition, in data set [9], the “CYP19A1 mRNA expression” value was “significantly downregulated”. The “MMP2 mRNA expression” value in data set [10] is on record as “markedly suppressed”. Besides, in data set [11], the IC50 was over 100 µM, the “proliferation rate of VERO cells” value is “remained largely unchanged” and the “cytotoxicity in VERO cells” value is recorded as “lower cytotoxicity than CXB”.
Turning to `Cc1cc(-c2ccco2)nn1S(=O)(=O)Oc1ccccc1Cl` [Compound 5f], the “BCL2 protein suppression (Western blot)” value in data set [1] is listed as “stronger suppression of BCL2 than CXB”. For the same compound, the “apoptotic cells” value in data set [2] is recorded as “significant increase”. The “COX-2 mRNA level” value in data set [3] was “significantly downregulated”. Also, in data set [4] (vs CXB-treated group), the “COX-2 mRNA level” value is reported as “significantly lower”. The “COX-2 mRNA level” value in data set [4] (vs control) is reported as “significantly downregulated”. In addition, in [5], the “antiproliferative effect on HepG2” value was “concentration-dependent antiproliferative effects”, the “apoptosis of HepG2” value is reported as “induction of apoptosis” and the “migration of HepG2” value is “suppression of migration”. For the same compound, in data set [6], the “MMP9 mRNA expression” value is given as “significantly downregulated”. Moreover, the “CYP19A1 mRNA expression” value in [7] was “significantly reduced”. In addition, in data set [8], the “total apoptotic cell population” value is reported as “significantly higher; also recorded: optimal efficacy”. Moreover, the “CYP19A1 mRNA expression” value in data set [9] was “slightly influenced the expression, although not significantly”. In [10], the “MMP2 mRNA expression” value is given as “no statistically significant suppression”. Besides, in [11], inhibition was half-maximal at 225 µM (IC50), the “proliferation rate of VERO cells” value is on record as “moderate inhibitory effect” and the “cytotoxicity in VERO cells” value was “lower cytotoxicity than CXB”.

For orientation: IC50 means the concentration needed to halve the response being measured. The low end stands for inhibition by little substance, the high end for a need for much substance.
